In article PMC8751641, “Synthesis and Antiviral Activities of Neoechinulin B and Its Derivatives” (Journal of Natural Products, 2021):

What was measured:
[1] = MTT assay, cytotoxicity against host Huh7.5.1 cells; type: cell-based; conditions: human
Protocol: (§1) The anti-HCV assay was performed as described previously.[3] In brief, Huh7.5.1 cells were treated with HCV JFH-1 at a multiplicity of infection (MOI) of 0.15 for 4 h. […] The infectivity of HCV in the medium was quantified by a focus-forming assay with Huh7.5.1 cells. Cell viability at 72 h post-treatment was simultaneously measured by the MTT assay.[16] Cell growth inhibition was evaluated as the ratio of the absorbance of the sample to that of the control.

SARS-CoV-2 Wk-521 strain = experiment: Anti-SARS-CoV-2 assay (extracellular viral RNA, VeroE6/TMPRSS2 cells); conditions: for IC50: read-out: Anti-SARS-CoV-2 activity IC50, MOI 0.003, 24 h, extracellular viral RNA, mean ± SD, triplicate; for IC90: read-out: Anti-SARS-CoV-2 activity IC90, MOI 0.003, 24 h, extracellular viral RNA, mean ± SD, triplicate
[2] = Cell viability of VeroE6/TMPRSS2 cells (DAPI staining, cell count); type: cell-based; conditions: chlorocebus sabaeus, 24 h, DAPI staining, surviving cell number, read-out: Cytotoxicity CC50
Protocol: (§2) The number of cells was quantified based on the measurement of the DNA content.[20] Cell growth inhibition was evaluated as the ratio of the absorbance of the sample to that of the control. […] The cells were washed with PBS and fixed in 4% paraformaldehyde. The resultant cells were stained with 0.02% 4′,6-diamidino-2-phenylindole (DAPI) and washed with PBS four times. The number of surviving cells was quantified with a high-content imaging analyzer, ImageXpress Micro Confocal (Molecular Device, San Jose, CA, USA).

HCV JFH-1 [3] = experiment: Anti-HCV assay (infectivity of HCV in the medium, focus-forming assay); type: cell-based; conditions: Hepatitis C virus, Huh-7.5.1; Huh7.5.1 cells, HCV JFH-1 MOI 0.15, 72 h; mean ± SD, triplicate
Protocol: as §1

poliovirus = conditions: cited from earlier work
recombinant LXRα = test system: recombinant LXRα; set-up: method as in PMID 27489280; conditions: cited from earlier work
recombinant LXRβ = test system: recombinant LXRβ; set-up: method as in PMID 27489280; conditions: cited from earlier work
[4] = test system: influenza A virus subtype H1N1; set-up: method as in PMID 25681711; conditions: by targeting viral hemagglutinin; cited from earlier work
HCV JFH-1 [5] = test system: HCV JFH-1; set-up: method as in PMID 27489280; conditions: cited from earlier work
VeroE6/TMPRSS2 cells = experiment: Cell viability of VeroE6/TMPRSS2 cells (DAPI staining, cell count); type: cell-based
Protocol: as §2

LXR = experiment: LXRE-driven luciferase reporter assay in Huh-7 cells; conditions: 48 h

SMILES	melting point [°C]	CC50 at 72 h [1] [µM]	Anti-SARS-CoV-2 activity (in words) (SARS-CoV-2 Wk-521 strain)	IC50 (SARS-CoV-2 Wk-521 strain) [µM]	IC90 (SARS-CoV-2 Wk-521 strain) [µM]	CC50 at 24 h [2] [µM]	IC50 (HCV JFH-1 [3]) [µM]	IC90 (HCV JFH-1 [3]) [µM]	Poliovirus RNA replication in DMVs (poliovirus)	Interaction with LXRα (SPR) (recombinant LXRα)	Interaction with LXRβ (SPR) (recombinant LXRβ)	Entry of influenza A virus subtype H1N1 [4]	Antiviral effects against HCV (earlier report) (HCV JFH-1 [5])	Toxicity toward the host cells (in words) (VeroE6/TMPRSS2 cells)	LXRE-driven luciferase activity (agonist) (LXR)
C=c1[nH]c(=O)/c(=C/c2ccc(C)cc2)[nH]c1=O [1h]	237 to 239	> 20	exhibited anti-SARS-CoV-2 activity	6 ± 2.4	16.3 ± 6.2	63.1 ± 17.9	2.7 ± 1.4	> 20	–	–	–	–	–	–	–
C=c1[nH]c(=O)/c(=C/c2cc(OC)c(OC)c(OC)c2)[nH]c1=O [1k]	219 to 221	> 20	did not show anti-SARS-CoV-2 activity	–	> 40	78.8 ± 4.5	1.1 ± 0.6	> 20	–	–	–	–	–	–	–
C=c1[nH]c(=O)/c(=C/c2ccoc2)[nH]c1=O [1d]	242 to 243	> 20	exhibited anti-SARS-CoV-2 activity	9.3 ± 6.2	21.2 ± 9	> 80	1.4 ± 0.34	> 20	–	–	–	–	–	–	–
C=c1[nH]c(=O)/c(=C/c2ccc3ccccc3c2)[nH]c1=O [1p]	216 to 217	> 20	did not show anti-SARS-CoV-2 activity	> 40	> 40	40.7 ± 20.1	0.26 ± 0.11	1.9 ± 0.65	–	–	–	–	–	–	–
C=CC(C)(C)c1[nH]c2ccccc2c1/C=c1\[nH]c(=O)c(=C)[nH]c1=O [1a, neoechinulin B]	–	> 20	–	32.9 ± 13.2	45.6 ± 7.4	> 70	4.7 ± 1.4	> 20	reduced the RNA replication of poliovirus	interacts with recombinant LXRα and LXRβ	interacts with recombinant LXRα and LXRβ	inhibit the entry of influenza A virus subtype H1N1	exhibited antiviral effects against hepatitis C virus (HCV)	–	–
C=c1[nH]c(=O)/c(=C/c2ccccc2)[nH]c1=O [1c]	242 to 243	> 20	exhibited anti-SARS-CoV-2 activity	13.6 ± 3.2	20.3 ± 3.2	40.1 ± 10.5	0.0059 ± 0.0042	> 20	–	–	–	–	–	–	–
C=c1[nH]c(=O)/c(=C/c2ccsc2)[nH]c1=O [1e]	242 to 243	> 20	–	–	–	42.2 ± 7.9	1.4 ± 0.48	> 20	–	–	–	–	–	showed toxicity toward the host cells	–
C=c1[nH]c(=O)/c(=C/c2ccc(OC)c(OC)c2)[nH]c1=O [1j]	237 to 238	> 20	exhibited anti-SARS-CoV-2 activity	10.3 ± 3.7	20.1 ± 8.5	62.8 ± 17.4	2 ± 0.068	> 20	–	–	–	–	–	–	–
C=c1[nH]c(=O)/c(=C/c2ccc(C(=O)OC)cc2)[nH]c1=O [1l]	248 to 249	> 20	exhibited anti-SARS-CoV-2 activity	8.4 ± 2.1	14.1 ± 1.8	> 50	1.2 ± 0.16	6.5 ± 1.84	–	–	–	–	–	–	–
C=CC(C)(C)c1[nH]c2ccccc2c1/C=C1\NC(=O)C(C)(OC)NC1=O (stereo not shown) [compound 6, variecolorin H]	–	> 20	–	> 40	> 40	> 100	> 20	> 20	–	–	–	–	–	–	–
C=c1[nH]c(=O)/c(=C/c2cc(C(C)(C)C)cc(C(C)(C)C)c2)[nH]c1=O [1f]	204 to 205	> 20	did not show anti-SARS-CoV-2 activity	–	> 40	> 100	0.015 ± 0.019	> 20	–	–	–	–	–	–	–
C=c1[nH]c(=O)/c(=C/c2ccc(-c3ccccc3)cc2)[nH]c1=O [1o]	229 to 230	> 20	exhibited anti-SARS-CoV-2 activity	20.8 ± 8	> 40	> 100	4.9 ± 0.66	> 20	–	–	–	–	–	–	–
C=CC(C)(C)c1[nH]c2ccccc2c1C[C@@H]1NC(=O)[C@H](C)NC1=O [compound 8, preechinulin]	–	> 20	–	> 40	> 40	> 100	> 20	> 20	–	–	–	–	–	–	–
C=c1[nH]c(=O)/c(=C/c2ccc(OC)cc2)[nH]c1=O [1i]	229 to 231	> 20	–	–	–	47.2 ± 0.6	1.3 ± 0.42	> 20	–	–	–	–	–	showed toxicity toward the host cells	–
C=c1[nH]c(=O)/c(=C/c2ccc(N(C)C)cc2)[nH]c1=O [1m]	225 to 227	> 20	–	–	–	28.3 ± 6.2	1.2 ± 0.54	> 20	–	–	–	–	–	showed toxicity toward the host cells	–
C=c1[nH]c(=O)/c(=C/c2ccc(C(C)(C)C)cc2)[nH]c1=O [1g]	212 to 213	> 20	did not show anti-SARS-CoV-2 activity	–	> 40	> 70	1.1 ± 0.34	> 20	–	–	–	–	–	–	–
C=c1[nH]c(=O)/c(=C/c2ccc(C(F)(F)F)cc2)[nH]c1=O [1n]	244 to 245	> 20	–	–	–	30.1 ± 7.3	1.6 ± 0.32	9.7 ± 1.06	–	–	–	–	–	showed toxicity toward the host cells	–
O=S(=O)(c1ccccc1)N(CC(F)(F)F)c1ccc(C(O)(C(F)(F)F)C(F)(F)F)cc1 [T0901317]	–	–	–	–	–	–	–	–	–	–	–	–	–	–	increased the LXRE-driven luciferase activity
C=c1[nH]c(=O)/c(=C/c2c[nH]c3ccccc23)[nH]c1=O [1b, (Z)-3-[(1H-Indol-3-yl)methylene]-6-methylenepiperazine-2,5-dione]	285 to 286	> 20	did not show anti-SARS-CoV-2 activity	> 40	> 40	> 100	2.2 ± 0.64	> 20	–	–	–	–	–	–	–
